Experimental findings from the supplement of paper PMC11208160 are described below.
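Further: IS621 bridge recombinase in Escherichia coli cells against a fixed T5 target plasmid.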

The nature of this data set: recombinant UMI read abundance after kanamycin selection (control-corrected) (log10(CPM+1)); higher = more efficient recombination; extreme values may be limits of the assay; sequences stand for … in AGTGCAGAGAAAATCGGCCAGTTTTCTCTGCCTGCAGTCCGCATGCCGTGGGACCCCTTGGGTTCTAACCTGTTGCCTAGATTTATGCAGCGGACTGCCTTTCTCCCAAAGTGATAAACCGG…AGGTTGGTTTCACT; site = the 11-nt donor. An outline of the steps: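 In a pooled Escherichia coli screen for the IS621 bridge recombinase, donor and donor-binding-loop pairs were each placed with a 12-nt UMI on a plasmid bearing a promoterless kanamycin gene. This library was co-electroporated with a target plasmid encoding a fixed target and T7-inducible recombinase, and cells were plated either on IPTG (0.07 mM) plus kanamycin or without selection, in two replicates each. Recombinant UMIs were PCR-amplified across the donor–target junction and sequenced, and counts were converted to CPM, averaged over replicates, scaled by control-derived factors and reported as log10(CPM+1).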
With “CTACTAACATGGACCGGTTTTCCCGGTAATCCGTATTTGCA (site CTACTAACTTC)”, the “recombinant UMI read abundance (log10)” value is 0.0167.
In the case of “CTACTAACATGGACCGGTTTTCCCGGTAATCCGTATTTGCA (site CTACTAACTTG)” it was 2.47; in that of “CTACTAACATGGACCGGTTTTCCCGGTAATCCGTATTTGCA (site CTACTAACTTT)”, 1.47.
In the case of “CTACTAACATGGACCGGTTTTCCCGGTAATCCGTATTTGGT (site CTACTAACTAC)” it was 0.461.
With “CTACTAACATGGACCGGTTTTCCCGGTAATCCGTATTTGGT (site CTACTAACTCC)” the figure was 0.0128; with “CTACTAACATGGACCGGTTTTCCCGGTAATCCGTATTTGGT (site CTACTAACTGC)”, 0.
Consider “CTACTAACATGGACCGGTTTTCCCGGTAATCCGTATTTGGT (site CTACTAACTTC)”, for which the “recombinant UMI read abundance (log10)” value amounted to 0.0138.
In the case of “CTACTAGCATGGACCGGTTTTCCCGGTAATCCGTATTTGGA (site CTACTAACTTC)” it was 1.43; in that of “CTACTAGCATGGACCGGTTTTCCCGGTAATCCGTATTTGGA (site CTACTACCTTC)”, 0.00939.
In the case of “CTACTAGCATGGACCGGTTTTCCCGGTAATCCGTATTTGGA (site CTACTAGCTTC)” it was 1.52.
For “CTACTAGCATGGACCGGTTTTCCCGGTAATCCGTATTTGGA (site CTACTATCTTC)”, the “recombinant UMI read abundance (log10)” value is 2.05.
In the case of “CTACTGACATGGACCGGTTTTCCCGGTAATCCGTATTTGGA (site CTACTAACTTC)” it was 1.76.
With “CTACTGACATGGACCGGTTTTCCCGGTAATCCGTATTTGGA (site CTACTCACTTC)”, the “recombinant UMI read abundance (log10)” value came to 0.015.
In the case of “CTACTGACATGGACCGGTTTTCCCGGTAATCCGTATTTGGA (site CTACTGACTTC)”, the “recombinant UMI read abundance (log10)” value is 0.475.
With “CTACTGACATGGACCGGTTTTCCCGGTAATCCGTATTTGGA (site CTACTTACTTC)” the figure was 0.67; with “CTACTTACATGGACCGGTTTTCCCGGTAATCCGTATTTGGA (site CTACTAACTTC)”, 0.0935; with “CTACTTACATGGACCGGTTTTCCCGGTAATCCGTATTTGGA (site CTACTCACTTC)”, 0.209.
Regarding “CTACTTACATGGACCGGTTTTCCCGGTAATCCGTATTTGGA (site CTACTGACTTC)”, the “recombinant UMI read abundance (log10)” value is 0.0111.
Regarding “CTACTTACATGGACCGGTTTTCCCGGTAATCCGTATTTGGA (site CTACTTACTTC)”, the “recombinant UMI read abundance (log10)” value is 1.32.
With “CTACTTTCATGGACCGGTTTTCCCGGTAATCCGTATTTGAC (site CTACTTTCTGT)” the figure was 1.94; with “CTACTTTCATGGACCGGTTTTCCCGGTAATCCGTATTTGAC (site CTAGTATCTGT)”, 0.
With “CTAGAATCATGGACCGGTTTTCCCGGTAATCCGTATTTGAC (site CTAGAATCTGT)” the figure was 2.83; with “CTAGAATCATGGACCGGTTTTCCCGGTAATCCGTATTTGAC (site CTAGCATCTGT)”, 0; with “CTAGAATCATGGACCGGTTTTCCCGGTAATCCGTATTTGAC (site CTAGGATCTGT)”, 1.28.
In the case of “CTAGAATCATGGACCGGTTTTCCCGGTAATCCGTATTTGAC (site CTAGTATCTGT)”, the “recombinant UMI read abundance (log10)” value came to 2.
In the case of “CTAGAGGCATGGACCGGTTTTCCCGGTAATCCGTATTTGTT (site CTAGAGGCTAA)” it was 1.82; in that of “CTAGCAGCATGGACCGGTTTTCCCGGTAATCCGTATTTGCT (site CAAGCAGCTAG)”, 0.38; in that of “CTAGCAGCATGGACCGGTTTTCCCGGTAATCCGTATTTGCT (site CCAGCAGCTAG)”, 0.129.
With “CTAGCAGCATGGACCGGTTTTCCCGGTAATCCGTATTTGCT (site CGAGCAGCTAG)” the figure was 0.
With “CTAGCAGCATGGACCGGTTTTCCCGGTAATCCGTATTTGCT (site CTAGCAGCTAG)” the figure was 1.36; with “CTAGCGCCATGGACCGGTTTTCCCGGTAATCCGTATTTGTG (site CAAGCGCCTCA)”, 0.0754.
Turning to “CTAGCGCCATGGACCGGTTTTCCCGGTAATCCGTATTTGTG (site CCAGCGCCTCA)”, the “recombinant UMI read abundance (log10)” value was 0.0159.
With “CTAGCGCCATGGACCGGTTTTCCCGGTAATCCGTATTTGTG (site CGAGCGCCTCA)” the figure was 0.00935.
In the case of “CTAGCGCCATGGACCGGTTTTCCCGGTAATCCGTATTTGTG (site CTAGCGCCTCA)” it was 0.446.
